# Laboratory results from patent US11801235B2, “Methods and compositions for delivery of biotin to mitochondria” (priority 2020, dated 2023).
# Peptide text beside a SMILES is read from it. * marks the point of attachment. Biotin = O=C1N[C@H]2[C@H](CS[C@H]2CCCCC(=O)*)N1
# Columns and labels:
# HK-2 cells [1] = assay: In vitro scratch assay (scratch area); type: cell-based, human; details: 10 nM
# Description: (§1) Certain exemplary peptide-conjugated biotin molecules can accelerate wound healing in cell cultures. The in vitro scratch assay is an easy and well-developed method to measure cell proliferation and migration over a “wound area” in vitro. This assay involves creating a “scratch” in a cell monolayer with a pipette tip and then examining the rate at which cells proliferate and migrate to close the scratch.
# 3×10^5 cells were plated per well in 6-well plates in DMEM at 37° C. in a humidified incubator with 5% CO2 for one day prior to the experiment. To mimic the microenvironment of wounds in vitro, serum-free medium was used in the scratch assay. On the day of the scratch assay, the medium was replaced with serum-free DMEM, and a line scraped across the cell monolayer using a p1000 pipette tip. Cells were washed to remove cell debris and replaced with DMEM alone (control), or DMEM containing 10 nM biotin or peptide-conjugated biotin molecules.
# (§2) The scratch area was examined immediately (day 0) using a Nikon Eclipse Ti2 fluorescence microscope. Six different field were captured for each sample using 4×objective. The scratch area (cell-free zone) was calculated using ImageJ software, an open-source Java image processing program inspired by NIH Image (National Institute of Health). The scratch area was re-examined after 24 hours (day 1), and the area was normalized to the area determined on day 0 for the same sample. All results were calculated as change from no-treatment control and averaged for the six fields.
# HK-2 cells [2] = assay: Cellular ATP in extreme starvation model (serum-free 5% DMEM in PBS, 3 days); type: cell-based, human; details: 10 nM
# Description: ATP was measured using the ApoSENSOR ATP Bioluminescence Assay Kit (BioVision) according to manufacturer's protocol. This kit utilizes luciferase to catalyze the formation of light from ATP and luciferin. Briefly, cells were treated with 100 ul of Nuclear Releasing Buffer for 5 min at RT with gentle shaking. 10 ul of ATP Monitoring Enzyme was added to cell lysate, and luminescence was measured using a microplate reader (SpectraMax iD3, Molecular Device). ATP levels were normalized to the serum-free DMEM control group (arbitrarily set to 1.0).
# The second model uses an extreme starvation model whereby HK-2 cells were cultured in 96-well plates in serum-free 5% DMEM in PBS (phosphate-buffered saline) for 3 days. Cells were treated with 10 nM free biotin or peptide-conjugated biotin molecules. All treatments were carried out with N=6 in each experiment.
# [3] = test system: ARPE-19 human retinal pigment epithelial cells; assay: Mitochondrial localization: co-localization with cytochrome c oxidase subunit 4 (COX4); type: cell-based; details: ARPE-19 cells, 1 uM, 2 hours, serum-free DMEM/F12
# Description: Cells were fixed with 4% PFA at RT for 10 min and then permeabilized with 0.1% Triton X-100 at RT for 10 min. Cells were blocked with 2% BSA (bovine serum albumin) at RT for 30 min, and then incubated with primary antibody for cytochrome c oxidase subunit 4 (COX4), a major protein complex expressed on the inner mitochondrial membrane. The rabbit polyclonal COX4 antibody (Invitrogen PAS-29992, Waltham, MA) was used at 1:500 dilution in 2% BSA at 4° C. overnight.
# [4] = test system: HK-2 human renal epithelial cell monolayers; assay: Cell proliferation at scratch edge (PCNA staining); type: cell-based; details: HK-2 cells, 10 nM, serum-free, 24 hours after scratch
# From the text: (§3) Re-epithelialization of a wound area require proliferation of cells at the wound edge, which can be impaired in most wounds due to lack of blood flow to deliver nutrients and/or growth factor(s) that can be necessary for cell proliferation. Cell proliferation in the wound edge can be monitored by proliferating cell nuclear antigen (PCNA) staining. To mimic the microenvironment of wounds in vitro, serum-free medium was used for the scratch assay in cell cultures.
# (§4) Proliferating cells were identified by immunostaining with antibody to proliferating cell nuclear antigen (PCNA) according to standard procedures as presented in IHC World. PCNA staining was performed using the same plate of cells after determination of scratch area. […] All cell nuclei stain blue with Hoechst, but nuclei of proliferating cells stain red. The number of proliferating cells per field was quantified by the intensity of red nuclear stain and normalized to intensity of blue nuclear stain (determined by Nikon NIS-Elements Imaging Software).
# [5] = test system: ARPE-19 human retinal pigment epithelial cell monolayers; assay: Cell proliferation at scratch edge (PCNA staining); type: cell-based; details: ARPE-19 cells, 10 nM, serum-free, 24 hours after scratch
# From the text: as §3, §4
# ARPE-19 cells [6] = assay: In vitro scratch assay (scratch area); type: cell-based, human
# From the text: as §1, §2
# HK-2 cells [7] = assay: Mitochondrial potential (TMRM) of cells at the scratch edge; type: cell-based, human; details: 10 nM, serum-free, 24 hours after scratch
# From the text: Rapidly dividing cells can need ATP to support the synthesis of important building blocks. Tissue injury can cause rapid mitochondrial depolarization that compromises ATP production and/or results in cell death. The loss of ATP can further impair cell proliferation and/or tissue repair. Mitochondrial potential can be monitored in the cells at the edge of the scratch area using the cell-permeable potential-dependent dye TMRM (tetramethylrhodamine methyl ester). TMRM can accumulate in negatively charged polarized mitochondria and can be detected as red fluorescence. To mimic the microenvironment of wounds in vitro, serum-free medium was used in the scratch assay. […] HK-2 cells were then incubated with 5 nM TMRM in DMEM without phenol red and incubated for 30 min. Cells were then covered with live cell image buffer and imaged using Nikon Eclipse Ti2 fluorescent microscope (20× objective).
# [8] = test system: Human retinal pigment epithelial cells (ARPE-19); assay: Mitochondrial potential (TMRM/MitoView Green) after serum starvation; type: cell-based; details: ARPE-19 cells, 3 days of serum starvation, then 1 uM for 2 hours
# Description: ARPE-19 cells were seeded in 35 mm glass plates at an initial density of 5×10^4 cells. […] Cells were then incubated in serum-free DMEM/F12 alone (control group) or DMEM/F12 containing 1 uM of SPN12 or SPN15 for 2 hours.
# To determine mitochondrial potential, live cells were incubated with 5 nM tetramethylrhodamine methyl ester (TMRM, #70017, Biotium, Fremont, CA) in DMEM without phenol red. TMRM is a potential-dependent fluorescent dye (Ex/Em=548/573). TMRM accumulates in negatively charged polarized mitochondria and can be detected as red fluorescence. Total mitochondria were imaged with a mitochondrial potential-independent fluorescent dye (100 nM MitoView Green; Ex/Em=490/523; #70054, Biotium, Fremont CA). Hoechst 33342 (10 ug/ml, Novus Biologicals, Centennial, CO) was added to stain nuclei. Live cells were covered with phosphate buffer and imaged using the Nikon Eclipse Ti fluorescent microscopy using the 60×water objective.
# HK-2 cells [9] = assay: Cell viability (Alamar Blue) after 11 days of serum starvation; type: cell-based, human; details: 10 nM, vs serum-free control
# Description: In the first model, HK-2 cells were cultured in 96-well plates in serum-free DMEM alone or in serum-free DMEM containing 10 nM of SPN11 or SPN12 for 11 days. Culture medium was replaced every 3 days.
# (§5) Cell viability was measured using the Alamar Blue Cell Proliferation Assay (Bio-Rad), according to manufacturer's protocol. Alamar Blue uses resazurin to measure reducing power of living cells. The weakly fluorescent resazurin is reduced to the highly fluorescent resorufin when reduced by cellular metabolism. Briefly, alamar blue reagent (10 ul) was added to the culture medium and incubated for 1 h at 37° C. Fluorescence from resorufin (Ex/Em 530/590 nm) was detected using a microplate reader (SpectraMax iD3, Molecular Devices).
# ARPE-19 cells [10] = assay: Cell number and viability after 30 days of serum deprivation; type: cell-based, human; details: 10 nM
# Description: as §5
# In the second model, ARPE-19 cells were grown in serum-free DMEM in the absence or presence of peptide-conjugated biotin molecules for 30 days. Serum-free media was supplemented with 10 nM of SPN12, SPN15 or SPN16 compounds (all at 10 nM) was replaced every 3 days. Culture medium was replaced every 3 days.
compound,measurement,setting,value
"N=C(N)NCCC[C@H](NC(=O)[C@H](Cc1c[nH]c2ccccc12)NC(=O)CCCC[C@@H]1SC[C@@H]2NC(=O)N[C@@H]21)C(=O)N[C@@H](Cc1c[nH]c2ccccc12)C(=O)N[C@@H](CCCCNC(=O)CCCC[C@@H]1SC[C@@H]2NC(=O)N[C@@H]21)C(N)=O [SPN12, D-Biotin-L-Trp-L-Arg-L-Trp-L-Lys(biotinyl)-NH2] (Biotin-WRWK(Biotin)-NH2)","scratch area after 24 hours, microscopic images FIG. 15","HK-2 cells [1]; serum-free DMEM, 24 hours after mechanical scratch",almost completely closed
same,"closure of the scratch area compared to control, FIG. 16 and FIG. 17","HK-2 cells [1]; serum-free, 24 hours",significantly accelerated the closure of the scratch area
same,"effectiveness in reducing scratch area compared to free biotin, FIG. 16 and FIG. 17","HK-2 cells [1]; serum-free, 24 hours",twice as effective
same,"ATP content compared to free biotin under extreme starvation, FIG. 12",HK-2 cells [2],doubling
same,"co-localization of biotin staining with COX4 staining (inner mitochondrial membrane), FIG. 6",[3],co-localization
same,"number of proliferating cells normalized to all nuclei, FIG. 21",[4]; compared to control or biotin,doubled
same,"number of proliferating (PCNA-positive) cells at the edge of the scratch, images FIG. 20",[4]; compared to free biotin,increased the number of proliferating cells
same,"number of proliferating (PCNA-positive) cells at the edge of the scratch, images FIG. 22",[5],increased the number of proliferating cells
same,"wound healing (scratch closure), FIG. 18",ARPE-19 cells [6],accelerated wound healing
same,"number of cells with good mitochondrial potential (TMRM) at scratch edge, images FIG. 24",HK-2 cells [7],increased the number of cells with good mitochondrial potential
same,"mitochondrial potential (red fluorescence) normalized to nuclear number, FIG. 25",HK-2 cells [7]; compared to control,significantly increased mitochondrial potential
same,"mitochondrial potential (TMRM) and filamentous mitochondrial network, FIG. 14",[8],restore mitochondrial potential in all cells
same,"improvement of cell viability in the absence of serum, FIG. 7",HK-2 cells [9],35%
same,"cell viability after serum deprivation compared to control, FIG. 9",ARPE-19 cells [10]; 30 days of serum deprivation,doubled
same,"cell number after prolonged serum deprivation, microscopic images FIG. 8",ARPE-19 cells [10]; 30 days serum-free,increased cell number
